# Where two headings read alike, the source gives them in different places.
# Assays:
# in vivo = settings: male, Beagle, dog, sc, 0.837 mg/kg
# [1] = cited from earlier work
# [2] = cited from earlier work; remark: listed apart in the source
# [3] = dog, in vivo, sc, 0.837 mg/kg
smiles,measurement,setting,value
CN1CCc2cccc3c2[C@H]1Cc1ccc(O)c(O)c1-3 [Apomorphine],AUC(0-t),in vivo; AUClast,82.9 ng·h/mL
same,MRT last,in vivo; MRTlast,24.4 h
same,tmax,in vivo; Tmax,30 h
same,Stability,[1]; exposure to light and air (wrapped cell r15-r17: gradually acquires a green color),acquires a green color on
same,Stability,[1]; recommended storage conditions (protect from light),Stable under recommended
same,Solubility,[2]; in Toluene (wrapped cell r23-r24: practically insoluble),insoluble in Toluene.
same,Solubility,[2]; in alcohol (wrapped cell r19-r20: sparingly soluble in water and in alcohol),Sparingly soluble in water
same,Solubility,[2]; in chloroform (wrapped cell r21-r22: very slightly soluble),water at 80°; very slightly
same,Solubility,[2]; in ether (wrapped cell r21-r23: very slightly soluble),water at 80°; very slightly
same,Solubility,[2]; in water,Sparingly soluble in water
same,Cmax,[3],3.41 ng(mL

# Source: patent US12576093B2, “Pharmaceutical composition for subcutaneous administration” (MANNKIND CORPORATION, priority 2019, dated 2026)
